Measured values published in patent US8026217B2, “Compositions and methods for treating neural anoxia and spreading depression” (Florida Atlantic University, priority 2007, dated 2011).

What was measured:
[1] = system: metathoracic ganglion of the locust; experiment: Repetitive SD triggered by ouabain in locust; type: in vivo, Locusta migratoria; conditions: for number of repetitive SD-like events in animals that generated SD: ouabain exposure, FIG. 2D; for baseline [K+]o levels during ouabain exposure: pre-treatment, FIG. 2E
Excerpt: In a second set of experiments, repetitive SD triggered by the ionic disturbance caused by ouabain (a specific inhibitor of the sodium/potassium pump that restores ionic gradients across cell membranes) was examined.
Pretreatment with a bath application of KT5823 prevented repetitive SD in 70% of animals. […] FIG. 2B illustrates a representative example in a single preparation of the eradication of repetitive SD by prior bath application of KT5823. FIG. 2C illustrates that KT5823 reduced the percentage of preparations showing repetitive SD in response to ouabain, while FIG. 2D illustrates that control and KT5823-treated preparations have fewer repetitive SD events.

[2] = system: zebrafish; experiment: Zebrafish behaviour during acute anoxia; type: in vivo; conditions: whole zebrafish in anoxic water post-treatment; expected
Excerpt: Vertebrate (zebrafish) behaviour is examined during acute anoxia. Whole zebrafish are exposed to anoxic water post-treatment with a PDE5 inhibitor, 8-bromo-GMP, KT5823, and Cantharidin. The time until the animal knocks out during anoxia is monitored.

[3] = system: mammals (mouse or rat); experiment: Spreading depression in mammals; type: in vivo; conditions: expected
Excerpt: The pharmacological effects of a PDE5 inhibitor, 8-bromo-GMP, KT5823, and Cantharidin during spreading depression are examined in mammals (mouse or rat).

[4] = system: metathoracic ganglion of the locust; experiment: SD-like events evoked by high-potassium (KCl 150 mM) injection into the locust metathoracic ganglion; type: in vivo, Locusta migratoria
Excerpt: CSD is increasingly accepted as a primary causative agent for migraine, particularly migraine with aura. The cellular mechanisms underlying stroke, seizures and migraine are not exclusive to mammals. Using the locust (Locusta migratoria), a proven model for examining the effects of heat stress on CNS activity, a rapid rise in extracellular potassium ([K^+]o) during anoxia/hypoxia, extreme heat, and ouabain exposure was monitored. This phenomenon has all the characteristics of SD in the neocortex of mammals. Since the physiological mechanisms observed in locust SD-like events are similar to that of mammals, findings in this insect model are predictably transferable to mammals, including humans. In the locust, model SD-like events were triggered in the CNS by injecting small volumes of saline containing high levels of potassium ions (KCl at 150 mM instead of the nominal resting level of 10 mM) into the metathoracic ganglion. Potassium-sensitive microelectrodes were used to measure SD generated by KCl injections, while manipulating the PKG pathway.
This tissue response is characterised by a transient surge and subsequent clearance of potassium ions in the extracellular space ([K^+]o). During SD-like events ventilatory motor activity ceases. This was monitored using an electromyographic electrode positioned on an abdominal muscle used for ventilation (Ventilatory EMG). Upon restoration of the potassium ion gradient the neural activity recovered and preparations began to ventilate again.
The first injection was used as a control. Following the first injection, animals were allowed 10 minutes of perfusion with standard locust saline before treatment with bath applications of selected drugs (i.e. KT5823, T-0156). All drugs were dissolved in a minimum amount of DMSO before further dilution with standard locust saline to a concentration of 10^−5M and were superfused over the metathoracic ganglion for 10 minutes before the second injection. A total of 20 minutes elapsed between the first and second injection in all experiments. As shown in Figure (Bi), duration at half the maximum amplitude was used to characterize the severity of SD-like events. A significant increase was observed following the second injection when compared to the first in control animals. […] Heat shock (HS) preconditioning reduced SD duration evoked by the first and second injections. […] Numbers in the histogram bars indicate number of preparations tested. Asterisks indicate statistically significant differences between the first and second injection ([…]).
Motor pattern activity was not measured for T-0156/Cantharidin treatments. […] Figure (Cii) illustrates the drug effects by showing the percentage difference in rhythm recovery time (second injection relative to first injection).
Single SD events were evoked by injection of saline (50 nL) containing elevated potassium chloride (150 mM vs. 10 mM) directly into the metathoracic ganglion. […] During SD, ventilatory motor activity monitored electromyographically (EMG) ceased and recovered upon restoration of the potassium ion gradient. The duration of the [K^+]o wave at half its maximal amplitude and the time from failure of motor patterning to the recovery of a ventilatory rhythm were measured. […] Numbers in brackets represent sample size.
As in Example 3, SD events were evoked by injection of saline (50 nL) containing elevated potassium chloride (150 mM vs. 10 mM) directly into the metathoracic ganglion of locust preparations.

[5] = system: respiratory brain slices; experiment: Neural function in respiratory brain slices during sodium azide-induced anoxia; parameters: species or system mouse or rat; conditions: expected
Excerpt: Neural function in mammals (mouse or rat) is examined pharmacologically during acute anoxia in respiratory brain slices via sodium azide, which chemically induces anoxia. Following administration of the sodium azide, the time until neural failure is monitored. This is done in the presence of a PDE5 inhibitor, 8-bromo-GMP, KT5823, and Cantharidin.

Structure (SMILES) | animals in which repetitive SD was generated ([1]; concomitantly treated with 10^-4 M ouabain) [%] | number of repetitive SD-like events in animals that generated SD [1] | baseline [K+]o levels during ouabain exposure [1] | time until the animal knocks out during anoxia [2] | SD-like events and neural function [3] | recovery time of ventilatory rhythm, second event versus first ([4]; Example 3, drug applied for 10 minutes prior to second injection, FIG. 3D) | time until neural failure [5] | animals in which repetitive SD was prevented ([1]; pretreatment by bath application, then ouabain) [%] | length of time to recover ventilatory motor pattern activity after SD ([4]; Example 1, bath application 10^-5 M for 10 minutes before second KCl injection)
Nc1nc2c(nc(Br)n2[C@@H]2O[C@@H]3COP(=O)(O)O[C@H]3[C@H]2O)c(=O)[nH]1 [8-Br-cGMP] | 100 | significantly fewer SD-like events than 8-Br-cGMP-treated animals | did not raise the baseline [K^+]o levels above controls | increased sensitivity to anoxia causing early failure of behaviour (neural function) | increased SD-like events causing early failure of neural function | The recovery time was increased | increased sensitivity to anoxia causing early failure of neural function |  | 
COC(=O)[C@@]1(OC)C[C@H]2O[C@]1(C)n1c3ccccc3c3c4c(c5c6ccccc6n2c5c31)C(=O)N(C)C4 [KT5823, (9S, 10R, 12R)-2,3,9,10,11,12-Hexahydro-10-methoxy-2-9-dimethyl-1-oxo-9,12-epoxy-1H-diindolo-[1,2,3-fg:3′,2′,1′-k1]pyrrolo[3,4-i][1,6]benzodiazocine-10-carboxylic acid methyl ester] |  | significantly more SD-like events than KT5823-treated animals | significantly reduces the baseline [K^+]o levels | neuroprotection and prolonged behaviour when subject to anoxia | neuroprotection and reduces SD-like events thereby prolonging neural function |  | neuroprotection and prolonged neural function when subject to anoxia | 70 | untreated preparations and those treated with T-0156 took significantly longer to recover
